Consider 36 molecules from patent publication EP4818158A1, “BIARYL COMPOUND” (Kissei Pharmaceutical Co., Ltd., priority 2023, dated 2025).

T1 sequence (P16473 21-764): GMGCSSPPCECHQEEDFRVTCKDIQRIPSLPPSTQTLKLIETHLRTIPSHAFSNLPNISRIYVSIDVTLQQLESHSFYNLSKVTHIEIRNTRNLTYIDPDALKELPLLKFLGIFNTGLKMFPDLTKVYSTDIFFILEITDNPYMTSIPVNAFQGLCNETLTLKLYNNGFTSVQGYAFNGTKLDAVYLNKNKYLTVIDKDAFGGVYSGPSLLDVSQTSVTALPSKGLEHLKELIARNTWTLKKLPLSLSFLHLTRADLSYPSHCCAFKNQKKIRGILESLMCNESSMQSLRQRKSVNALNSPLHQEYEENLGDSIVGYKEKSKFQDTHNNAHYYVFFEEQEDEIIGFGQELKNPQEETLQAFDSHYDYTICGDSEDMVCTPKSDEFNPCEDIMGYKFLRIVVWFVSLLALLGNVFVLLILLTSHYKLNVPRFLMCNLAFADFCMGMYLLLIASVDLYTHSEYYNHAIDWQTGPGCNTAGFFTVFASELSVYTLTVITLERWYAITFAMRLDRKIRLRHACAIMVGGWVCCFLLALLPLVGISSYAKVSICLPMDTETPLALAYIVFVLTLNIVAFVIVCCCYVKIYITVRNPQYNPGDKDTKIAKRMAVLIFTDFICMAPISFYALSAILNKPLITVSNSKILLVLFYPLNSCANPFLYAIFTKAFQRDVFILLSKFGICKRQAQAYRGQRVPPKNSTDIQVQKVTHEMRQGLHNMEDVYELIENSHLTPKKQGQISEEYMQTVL

This assay concerns the target T1, human TSHR (Homo sapiens, UniProt P16473).
T1 construct: expressed in transfected cells
The experiment in a line: Antagonist activity using TSH-induced cAMP generation in human TSHR-stably expressing CHO cells. The assay is classed as cell-based. Conditions: human TSH 50 ng/mL. As for the experimental part:
Measurement of antagonist activity using TSH-induced cAMP generation in human TSHR-stably expressing CHO cells as an indicator
The gene sequence (reference number: NM_000369.2) of a human TSHR was inserted into multiple cloning sites of pcDNA3.1 (+). Prepared plasmid vectors were introduced into CHO cells using a lipofection method, and human TSHR-stably expressing CHO cells were established. Obtained cells were seeded in a 96-well poly-D-lysine-coated plate at 5 × 10^4 cells/well and cultured in an F12 culture medium containing 10%FBS, 400 µg/mL of G418, 50 U/mL of penicillin, and 50 µg/mL of streptomycin under conditions of 37°C and 5% CO2 for one day. After the culture medium was removed, the cells were washed twice with 100 µL of an assay buffer solution (Hanks' Balanced Salt Solution containing 20 mM HEPES and 1 mM IBMX) per well. 30 µL of a test compound-containing assay buffer solution was added to the well and incubated at room temperature for 15 minutes. Next, 30 µL of an assay buffer solution containing human TSH (final concentration: 50 ng/mL, R&D Systems, Inc.) was added thereto and incubated at 37°C for one hour. A supernatant was removed, a Lysis and Detection Buffer 2(Cisbio) was added thereto, and the mixture was incubated at room temperature for one hour to prepare a cell lysate. According to the instruction manual of a cAMP Gs HiRange kit (Cisbio), the cell lysate, d2-labeled cAMP, and anti-cAMP Europium Cryptate labeled antibodies (Cisbio) were reacted together in a 384-well white microplate. Next, fluorescence intensity ratios (measurement wavelengths: 665 nm/620 nm) were measured using a multi-plate reader (PHERAstar FSX, BMG LABTECH, Japan). The fluorescence intensity ratio of each sample was converted to a cAMP content using a standard curve. The cAMP content was converted as a percentage of the control value to calculate a cAMP generation rate. The cAMP generation rates were plotted against the test compound concentrations using Prism (Graph Pad Software Inc.) to calculate IC50 values. The IC50's of the individual test compounds are shown in the above tables. In the tables, IC50 < 0.3 µM was denoted as A, and 0.3 µM ≤ IC50 < 30 µM was denoted as B. Cases where the IC50 values were not calculated for test compounds from which activity was recognized are denoted as C.
In general, IC50 refers to the concentration that inhibits the measured activity by half. On to `NC(=O)NCc1ncccc1-c1ccc(NC(=O)OC[C@H]2C[C@@H]2F)c(F)c1Cc1ccccc1F` (relative stereo) [Example A-32], for which the IC50 was under 0.3 µM.
As for `CC(C)(C)OC(=O)Nc1ccc(-c2cccnc2CNC(N)=O)c(Cc2ccccc2F)c1F` [Example A-1, tert-Butyl (2-fluoro-3-(2-fluorobenzyl)-4-(2-(ureidomethyl)pyridin-3-yl)phenyl)carbamate], the half-maximal inhibitory concentration (IC50) was under 0.3 µM.
For `CC(C)(C)OC(=O)Nc1ccc(-c2cccnc2CNC(N)=O)c(Cc2ccccc2C#N)c1F` [Example A-2, tert-Butyl (3-(2-cyanobenzyl)-2-fluoro-4-(2-(ureidomethyl)pyridin-3-yl)phenyl)carbamate] the value was 0.3 to 30 µM.
With `CC(C)(C)OC(=O)Nc1ccc(-c2cccnc2CNC(N)=O)c(Cc2c(F)cccc2C#N)c1F` [Example A-3, tert-Butyl (3-(2-cyano-6-fluorobenzyl)-2-fluoro-4-(2-(ureidomethyl)pyridin-3-yl)phenyl)carbamate], the IC50 lay within 0.3 to 30 µM.
On to `CC1(OC(=O)Nc2ccc(-c3cccnc3CNC(N)=O)c(Cc3ccccc3F)c2F)CC1` [Example A-4, 1-Methylcyclopropyl (2-fluoro-3-(2-fluorobenzyl)-4-(2-(ureidomethyl)pyridin-3-yl)phenyl)carbamate], for which the 50% inhibitory concentration (IC50) was under 0.3 µM.
For `NC(=O)NCc1ncccc1-c1ccc(NC(=O)O[C@H]2C[C@H](F)C2)c(F)c1Cc1ccccc1F` [Example A-5, trans-3-Fluorocyclobutyl (2-fluoro-3-(2-fluorobenzyl)-4-(2-(ureidomethyl)pyridin-3-yl)phenyl)carbamate] the value was under 0.3 µM; for `NC(=O)NCc1ncccc1-c1ccc(NC(=O)OC2CC(F)(F)C2)c(F)c1Cc1ccccc1F` [Example A-6], under 0.3 µM; for `CC(C)(C#N)COC(=O)Nc1ccc(-c2cccnc2CNC(N)=O)c(Cc2ccccc2F)c1F` [Example A-7], under 0.3 µM.
For `N#CC1(COC(=O)Nc2ccc(-c3cccnc3CNC(N)=O)c(Cc3ccccc3F)c2F)CC1` [Example A-8] the value was under 0.3 µM; for `Cc1ccnc(CNC(N)=O)c1-c1ccc(NC(=O)OC(C)(C)C)c(F)c1Cc1ccccc1` [Example A-9, tert-Butyl (3-benzyl-2-fluoro-4-(4-methyl-2-(ureidomethyl)pyridin-3-yl)phenyl)carbamate], 0.3 to 30 µM; for `Cc1cnc(CNC(N)=O)c(-c2ccc(NC(=O)OC(C)(C)C)c(F)c2Cc2ccccc2F)c1` [Example A-10, tert-Butyl (2-fluoro-3-(2-fluorobenzyl)-4-(5-methyl-2-(ureidomethyl)pyridin-3-yl)phenyl)carbamate], 0.3 to 30 µM.
For `CC(c1ccccc1)c1cc(NC(=O)OC(C)(C)C)ccc1-c1cccnc1/C=C/C(N)=O` (stereo not drawn) [Example A-11, tert-Butyl (E)-(4-(2-(3-amino-3-oxopropan-1-en-1-yl)pyridin-3-yl)-3-(1-phenylethyl)phenyl)carbamate] the value was 0.3 to 30 µM.
`CC(c1ccccc1)c1cc(NC(=O)OC(C)(C)C)ccc1-c1cccnc1CCC(N)=O` (stereo not drawn) [Example A-12, tert-Butyl (4-(2-(3-amino-3-oxopropyl)pyridine-3-yl)-3-(1-phenylethyl)phenyl)carbamate] registered a half-inhibitory concentration (IC50) of 0.3 to 30 µM.
`Cc1c(NC(=O)OC(C)(C)C)ccc(-c2cccnc2CNC(N)=O)c1Cc1ccccc1F` [Example A-13, tert-Butyl (3-(2-fluorobenzyl)-2-methyl-4-(2-(ureidomethyl)pyridin-3-yl)phenyl)carbamate] showed an IC50 of under 0.3 µM.
In turn, `CC(C)(C)OC(=O)Nc1c(F)cc(-c2cccnc2CNC(N)=O)c(Cc2ccccc2F)c1F` [Example A-14, tert-Butyl (2,6-difluoro-3-(2-fluorobenzyl)-4-(2-(ureidomethyl)pyridin-3-yl)phenyl)carbamate] came in with a half-maximal inhibitory concentration (IC50) of under 0.3 µM.
For `CC(C)(C)OC(=O)Nc1ccc(-c2cccnc2CNC(N)=O)c(Cc2cccc(F)c2)c1F` [Example A-15] the value was 0.3 to 30 µM.
`CC(C)(C)OC(=O)Nc1ccc(-c2cccnc2CNC(N)=O)c(Cc2ccc(F)cc2)c1F` [Example A-16] came in with a 50% inhibitory concentration (IC50) of under 0.3 µM.
For `COc1ccccc1Cc1c(-c2cccnc2CNC(N)=O)ccc(NC(=O)OC(C)(C)C)c1F` [Example A-17, tert-Butyl (2-fluoro-3-(2-methoxybenzyl)-4-(2-(ureidomethyl)pyridin-3-yl)phenyl)carbamate] the value was 0.3 to 30 µM; for `CC(C)(C)OC(=O)Nc1ccc(-c2cccnc2CNC(N)=O)c(Cc2ccccc2OCc2ccccc2)c1F` [Example A-18, tert-Butyl (3-(2-(benzyloxy)benzyl)-2-fluoro-4-(2-(ureidomethyl)pyridin-3-yl)phenyl)carbamate], 0.3 to 30 µM; for `CC(C)(C)OC(=O)Nc1ccc(-c2cccnc2CNC(N)=O)c(Cc2ccccc2O)c1F` [Example A-19, tert-Butyl (2-fluoro-3-(2-hydroxybenzyl)-4-(2-(ureidomethyl)pyridin-3-yl)phenyl)carbamate], under 0.3 µM.
`CC(C)(COCc1ccccc1)OC(=O)Nc1ccc(-c2cccnc2CNC(N)=O)c(Cc2ccccc2F)c1F` [Example A-20, 1-(Benzyloxy)-2-methylpropan-2-yl (2-fluoro-3-(2-fluorobenzyl)-4-(2-(ureidomethyl)pyridin-3-yl)phenyl)carbamate] had an IC50 of under 0.3 µM.
The molecule `CC(C)(CO)OC(=O)Nc1ccc(-c2cccnc2CNC(N)=O)c(Cc2ccccc2F)c1F` [Example A-21, 1-Hydroxy-2-methylpropan-2-yl (2-fluoro-3-(2-fluorobenzyl)-4-(2-(ureidomethyl)pyridin-3-yl)phenyl)carbamate] returned an IC50 of 0.3 to 30 µM.
For `CC(C)OC(=O)Nc1ccc(-c2cccnc2CNC(N)=O)c(Cc2ccccc2F)c1F` [Example A-22] the value was under 0.3 µM.
For `C[C@H](OC(=O)Nc1ccc(-c2cccnc2CNC(N)=O)c(Cc2ccccc2F)c1F)C(F)(F)F` [Example A-23] the value was under 0.3 µM; for `C[C@@H](OC(=O)Nc1ccc(-c2cccnc2CNC(N)=O)c(Cc2ccccc2F)c1F)C(F)(F)F` [Example A-24], under 0.3 µM; for `COC[C@H](C)OC(=O)Nc1ccc(-c2cccnc2CNC(N)=O)c(Cc2ccccc2F)c1F` [Example A-25, (S)-1-Methoxypropan-2-yl (2-fluoro-3-(2-fluorobenzyl)-4-(2-(ureidomethyl)pyridin-3-yl)phenyl)carbamate], 0.3 to 30 µM.
For `NC(=O)NCc1ncccc1-c1ccc(NC(=O)OC2CC2)c(F)c1Cc1ccccc1F` [Example A-26, Cyclopropyl (2-fluoro-3-(2-fluorobenzyl)-4-(2-(ureidomethyl)pyridin-3-yl)phenyl)carbamate] the value was 0.3 to 30 µM; for `NC(=O)NCc1ncccc1-c1ccc(NC(=O)OC2CCC(F)(F)C2)c(F)c1Cc1ccccc1F` (stereo not drawn) [Example A-27, 3,3-Difluorocyclopentyl (2-fluoro-3-(2-fluorobenzyl)-4-(2-(ureidomethyl)pyridin-3-yl)phenyl)carbamate], under 0.3 µM.
Consider `NC(=O)NCc1ncccc1-c1ccc(NC(=O)OC2CCOC2)c(F)c1Cc1ccccc1F` (stereo not drawn) [Example A-28], for which the concentration for half-maximal inhibition (IC50) fell in the range of 0.3 to 30 µM.
For `NC(=O)NCc1ncccc1-c1ccc(NC(=O)OC2CN3CCC2CC3)c(F)c1Cc1ccccc1F` (stereo not drawn) [Example A-29, (2-Fluoro-3-(2-fluorobenzyl)-4-(2-(ureidomethyl)pyridine-3-yl)phenyl)carbamate quinuclidine-3-yl] the value was 0.3 to 30 µM.
Take `CN(C)CCCOC(=O)Nc1ccc(-c2cccnc2CNC(N)=O)c(Cc2ccccc2F)c1F` [Example A-30, 3-(Dimethylamino)propyl (2-fluoro-3-(2-fluorobenzyl)-4-(2-(ureidomethyl)pyridin-3-yl)phenyl)carbamate]: the IC50 lay within 0.3 to 30 µM.
`NC(=O)NCc1ncccc1-c1ccc(NC(=O)OCC2CC2)c(F)c1Cc1ccccc1F` [Example A-31, Cyclopropylmethyl (2-fluoro-3-(2-fluorobenzyl)-4-(2-(ureidomethyl)pyridin-3-yl)phenyl)carbamate] had a half-maximal inhibitory concentration (IC50) of under 0.3 µM.
For `NC(=O)NCc1ncccc1-c1ccc(NC(=O)OCC2CC2(F)F)c(F)c1Cc1ccccc1F` (stereo not drawn) [Example A-33] the value was under 0.3 µM; for `NC(=O)NCc1ncccc1-c1ccc(NC(=O)OCC2(C(F)F)CC2)c(F)c1Cc1ccccc1F` [Example A-34], under 0.3 µM; for `NC(=O)NCc1ncccc1-c1ccc(NC(=O)OCC2CCOC2)c(F)c1Cc1ccccc1F` (stereo not drawn) [Example A-35], under 0.3 µM.
As for `NC(=O)NCc1ncccc1-c1ccc(NC(=O)OCc2ccccc2F)c(F)c1Cc1ccccc1F` [Example A-36], the IC50 was under 0.3 µM.
